Results taken from patent US9550782B2, “Compounds and methods for treating diabetes” (Medivation Technologies, Inc., priority 2011, dated 2017).

How the values were obtained:
[1] = target: T1, human recombinant adrenergic α2B receptor (Homo sapiens, UniProt P18089); test: Radioligand binding, adrenergic α2B ([3H]Rauwolscine); details: for Percentage inhibition of ligand binding, Adrenergic α2B (0.03 μM): repeat datapoints each shown
T1 construct: expressed in transfected cells; host or cells: CHO-K1
T1 sequence (P18089 1-450): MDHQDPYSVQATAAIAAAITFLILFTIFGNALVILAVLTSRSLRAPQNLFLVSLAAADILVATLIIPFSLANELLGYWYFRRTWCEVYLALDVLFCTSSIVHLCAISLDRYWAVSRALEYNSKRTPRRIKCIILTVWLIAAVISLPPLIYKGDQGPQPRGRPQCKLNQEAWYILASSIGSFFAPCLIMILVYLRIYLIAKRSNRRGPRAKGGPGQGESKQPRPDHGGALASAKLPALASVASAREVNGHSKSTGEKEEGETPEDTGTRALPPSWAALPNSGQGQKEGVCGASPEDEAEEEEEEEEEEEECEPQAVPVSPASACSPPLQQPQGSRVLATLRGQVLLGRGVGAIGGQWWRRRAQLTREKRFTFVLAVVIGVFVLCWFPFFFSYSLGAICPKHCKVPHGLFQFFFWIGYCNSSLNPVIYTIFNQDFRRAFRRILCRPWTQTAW
Outline: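 Values are percent inhibition of specific radioligand binding. The receptor, expressed in CHO-K1 cells, was exposed to 2.5 nM [3H]Rauwolscine at 25° C for 60 min, with 10 μM Prazosin marking non-specific binding.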

[2] = target: T2, human recombinant adrenergic α2A receptor (Homo sapiens, UniProt P08913); test: Radioligand binding, adrenergic α2A ([3H]MK-912); details: [3H]MK-912; for Percentage inhibition of ligand binding, Adrenergic α2A (0.1 μM): repeat datapoints each shown
T2 construct: expressed in transfected cells; host or cells: insect Sf9 cells
T2 sequence (P08913 1-465): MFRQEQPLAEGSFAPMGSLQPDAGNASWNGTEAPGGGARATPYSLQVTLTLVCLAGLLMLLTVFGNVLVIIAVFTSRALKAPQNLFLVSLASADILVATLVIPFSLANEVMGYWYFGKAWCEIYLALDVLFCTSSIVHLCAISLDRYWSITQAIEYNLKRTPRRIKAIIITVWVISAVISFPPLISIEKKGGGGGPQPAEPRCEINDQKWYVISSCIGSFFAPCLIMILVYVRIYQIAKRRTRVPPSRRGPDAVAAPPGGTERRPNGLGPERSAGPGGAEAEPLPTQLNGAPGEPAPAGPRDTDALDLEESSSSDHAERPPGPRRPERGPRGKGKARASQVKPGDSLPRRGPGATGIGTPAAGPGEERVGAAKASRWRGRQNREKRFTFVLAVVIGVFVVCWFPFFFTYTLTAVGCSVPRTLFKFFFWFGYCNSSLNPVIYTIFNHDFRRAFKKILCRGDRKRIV
Outline: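 Displacement of 1 nM [3H]MK-912 from receptor produced in insect Sf9 cells was measured after 60 min at 25 °C. Readout: percent inhibition of specific binding.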

[3] = target: T3, rat adrenergic α1B receptor (Rattus norvegicus, UniProt P15823); test: Radioligand binding, adrenergic α1B ([3H]Prazosin); set-up: species or system Wistar Rat; details: for Percentage inhibition of ligand binding, Adrenergic α1B (0.1 μM): repeat datapoints each shown
T3 construct: rat adrenergic α1B receptor obtained from Wistar Rat liver; from tissue; host or cells: Wistar rat liver
T3 sequence (P15823 1-515): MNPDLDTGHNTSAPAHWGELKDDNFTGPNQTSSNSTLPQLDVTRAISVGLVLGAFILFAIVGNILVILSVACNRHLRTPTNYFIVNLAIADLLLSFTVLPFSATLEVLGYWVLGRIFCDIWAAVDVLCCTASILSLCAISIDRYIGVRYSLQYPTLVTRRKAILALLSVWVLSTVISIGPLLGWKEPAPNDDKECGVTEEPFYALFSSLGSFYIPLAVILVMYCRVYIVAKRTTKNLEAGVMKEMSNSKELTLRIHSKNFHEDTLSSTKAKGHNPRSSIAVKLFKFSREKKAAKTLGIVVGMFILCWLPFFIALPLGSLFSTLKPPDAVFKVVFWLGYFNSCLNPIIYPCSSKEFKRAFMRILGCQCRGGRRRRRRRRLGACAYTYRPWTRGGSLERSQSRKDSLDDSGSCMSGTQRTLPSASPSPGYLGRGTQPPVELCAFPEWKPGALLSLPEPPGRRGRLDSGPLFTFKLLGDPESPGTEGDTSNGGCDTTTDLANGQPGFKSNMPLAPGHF
Outline: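 Specific binding, taken as total minus that remaining with 10 μM phentolamine, is measured after filtration and counting. Rat liver receptor preparation and 0.25 nM [3H]prazosin are incubated with compound in 50 mM Tris-HCl (pH 7.4, 0.5 mM EDTA) at 25° C for 60 min. Activity is reported as percent inhibition.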

| SMILES | Percentage inhibition of ligand binding, Adrenergic α2B (0.03 μM) ([1]; compound at 0.03 μM, 0.03 µM) [%] | Percentage inhibition of ligand binding, Adrenergic α2A (0.1 μM) ([2]; compound at 0.1 μM, 0.1 µM) [%] | Percentage inhibition of ligand binding, Adrenergic α1B (0.1 μM) ([3]; compound at 0.1 μM, 0.1 µM) [%] | further results |
| --- | --- | --- | --- | --- |
| Cc1ccc2c(c1)c1c(n2CC(C)(O)c2ccc(C)nc2)CCN(C)C1 (stereo not drawn) [29b] | 46 | 10 | 14 |  |
| CN1CCc2c(c3cccc(Cl)c3n2CC(O)c2ccncc2)C1 (single isomer, unassigned) [45a] | 54 | −4 | 23 |  |
| CN1CCc2c(c3cc(Cl)ccc3n2CC(C)(O)c2ccc(C(F)(F)F)nc2)C1 (single isomer, unassigned) [143b] |  |  |  | Percentage inhibition of ligand binding, Adrenergic α2B ([1]; 0.03 μM compound): 49%; Percentage inhibition of ligand binding, Adrenergic α2A ([2]; 0.1 μM compound): 0%; Percentage inhibition of ligand binding, Adrenergic α1B ([3]; 0.1 μM compound, 0.1 µM): 17% |
| Cc1ccc2c(c1)c1c(n2CC(N)c2ccncc2)CC2CCC1N2C (stereo not drawn) [compound 155] |  |  |  | inhibition at 0.03 µM ([1]; 0.03 μM compound, read-out: Percentage inhibition of ligand binding, Adrenergic α2B): 36%; inhibition at 0.1 µM ([2]; 0.1 μM compound, read-out: Percentage inhibition of ligand binding, Adrenergic α2A): 14%; inhibition at 0.1 µM ([3]; 0.1 μM compound, read-out: Percentage inhibition of ligand binding, Adrenergic α1B): 15% |
| CN1CCc2c(n(CC(C)(O)c3cccnc3)c3ccc(Cl)cc23)C1 (single isomer, unassigned) [28b] | 37 | 24 | 20 |  |
| Cc1cnc2c(c1)c1c(n2CC(C)(O)c2cccnc2)CCN(C)C1 (single isomer, unassigned) [II-99a] |  |  |  | Percentage inhibition of ligand binding, Adrenergic α2B ([1]; compound at 0.03 μM, 0.03 µM): 49%; Percentage inhibition of ligand binding, Adrenergic α2A ([2]; compound at 0.1 μM, 0.1 µM): 24%; Percentage inhibition of ligand binding, Adrenergic α1B ([3]; compound at 0.1 μM, 0.1 µM): 12% |
| Cc1cnc2c(c1)c1c(n2CC(C)(O)c2ccc(F)cc2)CCN(C)C1 (single isomer, unassigned) [138b] |  |  |  | Percentage inhibition of ligand binding, Adrenergic α2B ([1]; 0.03 μM compound, 0.03 µM): 25%; Percentage inhibition of ligand binding, Adrenergic α2A ([2]; 0.1 μM compound, 0.1 µM): 4%; Percentage inhibition of ligand binding, Adrenergic α1B ([3]; 0.1 μM compound, 0.1 µM): 22% |
| Cc1ccc2c(c1)c1c(n2CC(O)c2cn[nH]c2)CCN(C)C1 (stereo not drawn) [II-106b] |  |  |  | Percentage inhibition of ligand binding, Adrenergic α2B (0.03 μM) ([1]; compound at 0.03 μM): 36%; Percentage inhibition of ligand binding, Adrenergic α2A (0.1 μM) ([2]; compound at 0.1 μM): 8%; Percentage inhibition of ligand binding, Adrenergic α1B (0.1 μM) ([3]; compound at 0.1 μM): 31% |
| OC(Cn1c2c(c3cccnc31)CN1CCCC1C2)c1ccncc1 (single isomer, unassigned) [37a] | 2 | 18 | −5 |  |
| Cc1ccc2c(c1)c1c(n2CC(O)c2ccncc2)CC2CCCCN2C1 (racemic) [75c] | 11 | −2 | 59 |  |
